Data from PubChem BioAssay AID2060902 (Molecular Pharmacology Branch, DTP, NCI, 2025).

System: 485368-065-R3-J5-PDC spheroids with HUVEC/MSC, viability
Assay: Anticancer human tumor 485368-065-R3-J5-PDC patient-derived pancreatic carcinoma cell line growth inhibition [RAS]
Conditions: for IC50: curve of first compound; for viability, T/C: stronger effect = lower value
Method in brief: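 Multi-cell-type spheroids: tumor cells plus HUVEC endothelial cells and mesenchymal stem cells. RAS-pathway inhibitors were combined with targeted agents, each dosed in half-log steps down from clinical Cmax, or from 10 microM when Cmax was unknown.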

[1] = second compound 0.000949 µM, first compound 0.0316 µM
[2] = second compound 0.000949 µM, first compound 0.1 µM
[3] = second compound 0.000949 µM, first compound 0.316 µM
[4] = second compound 0.000949 µM, first compound 1 µM
[5] = second compound 0.000949 µM, first compound 3.16 µM
[6] = second compound 0.000949 µM, first compound 10 µM
[7] = second compound 0.003 µM, first compound 0.0316 µM
[8] = second compound 0.003 µM, first compound 0.1 µM
[9] = second compound 0.003 µM, first compound 0.316 µM
[10] = second compound 0.003 µM, first compound 1 µM
[11] = second compound 0.003 µM, first compound 3.16 µM
[12] = second compound 0.003 µM, first compound 10 µM
[13] = second compound 0.00949 µM, first compound 0.0316 µM
[14] = second compound 0.00949 µM, first compound 0.1 µM
[15] = second compound 0.00949 µM, first compound 0.316 µM
[16] = second compound 0.00949 µM, first compound 1 µM
[17] = second compound 0.00949 µM, first compound 3.16 µM
[18] = second compound 0.00949 µM, first compound 10 µM
[19] = second compound 0.03 µM, first compound 0.0316 µM
[20] = second compound 0.03 µM, first compound 0.1 µM
[21] = second compound 0.03 µM, first compound 0.316 µM
[22] = second compound 0.03 µM, first compound 1 µM
[23] = second compound 0.03 µM, first compound 3.16 µM
[24] = second compound 0.03 µM, first compound 10 µM
[25] = second compound 0.0949 µM, first compound 0.0316 µM
[26] = second compound 0.0949 µM, first compound 0.1 µM
[27] = second compound 0.0949 µM, first compound 0.316 µM
[28] = second compound 0.0949 µM, first compound 1 µM
[29] = second compound 0.0949 µM, first compound 3.16 µM
[30] = second compound 0.0949 µM, first compound 10 µM
[31] = second compound 0.3 µM, first compound 0.0316 µM
[32] = second compound 0.3 µM, first compound 0.1 µM
[33] = second compound 0.3 µM, first compound 0.316 µM
[34] = second compound 0.3 µM, first compound 1 µM
[35] = second compound 0.3 µM, first compound 3.16 µM
[36] = second compound 0.3 µM, first compound 10 µM
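Also: spheroids exposed to agents for seven days before readout.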

With CC(=O)OC12COC1CC(O)C1(C)C(=O)C(O)C3=C(C)C(OC(=O)C(O)C(NC(=O)OC(C)(C)C)c4ccccc4)CC(O)(C(OC(=O)c4ccccc4)C21)C3(C)C (centres undefined) + CCn1c(-c2cc(N3CCN(C)CC3)cnc2C(C)OC)c2c3cc(ccc31)-c1csc(n1)CC(NC(=O)C1CC1C)C(=O)N1CCCC(N1)C(=O)OCC(C)(C)C2 the IC50 (second compound 0.000949 µM) was < 31.6 nM, the IC50 (second compound 0.003 µM) was < 31.6 nM and the IC50 (second compound 0.00949 µM) was < 31.6 nM. For the same compound, the IC50 (second compound 0.03 µM) was < 31.6 nM, the IC50 (second compound 0.0949 µM) was < 31.6 nM and the IC50 (second compound 0.3 µM) was < 31.6 nM. The viability, T/C [1] was 11.7%, the viability, T/C [2] was 10.4% and the viability, T/C [3] was 12.1%. The viability, T/C [4] was 14.3%, the viability, T/C [5] was 15.2% and the viability, T/C [6] was 19.9%. It also gave a viability, T/C [7] of 10.7%, a viability, T/C [8] of 13.2% and a viability, T/C [9] of 12.2%. For the same compound, the viability, T/C [10] was 14.1%, the viability, T/C [11] was 15.3% and the viability, T/C [12] was 13.6%. For the same compound, the viability, T/C [13] was 9.77%, the viability, T/C [14] was 12.6% and the viability, T/C [15] was 10%. It also gave a viability, T/C [16] of 8.97%, a viability, T/C [17] of 11.4% and a viability, T/C [18] of 10.5%. It also gave a viability, T/C [19] of 7.89%, a viability, T/C [20] of 8.87% and a viability, T/C [21] of 8.33%. For the same compound, the viability, T/C [22] was 9.73%, the viability, T/C [23] was 10.6% and the viability, T/C [24] was 10.7%. It also gave a viability, T/C [25] of 7.57%, a viability, T/C [26] of 8.27% and a viability, T/C [27] of 7.87%. It also gave a viability, T/C [28] of 7.97%, a viability, T/C [29] of 10.9% and a viability, T/C [30] of 8.11%. The viability, T/C [31] was 7.3%, the viability, T/C [32] was 7.09% and the viability, T/C [33] was 7.44%. The viability, T/C [34] was 8.55%, the viability, T/C [35] was 10.2% and the viability, T/C [36] was 6.81%.

For CCC(CC)c1cc(NC2CCC(N)C2)n2nccc2n1 (centres undefined) + CCn1c(-c2cc(N3CCN(C)CC3)cnc2C(C)OC)c2c3cc(ccc31)-c1csc(n1)CC(NC(=O)C1CC1C)C(=O)N1CCCC(N1)C(=O)OCC(C)(C)C2, the IC50 (second compound 0.000949 µM) was 1050 nM, the IC50 (second compound 0.003 µM) was < 31.6 nM and the IC50 (second compound 0.00949 µM) was < 31.6 nM. For the same compound, the IC50 (second compound 0.03 µM) was < 31.6 nM, the IC50 (second compound 0.0949 µM) was < 31.6 nM and the IC50 (second compound 0.3 µM) was < 31.6 nM. For the same compound, the viability, T/C [1] was 42%, the viability, T/C [2] was 36.8% and the viability, T/C [3] was 56.3%. For the same compound, the viability, T/C [4] was 72.7%, the viability, T/C [5] was 3.44% and the viability, T/C [6] was 5.24%. For the same compound, the viability, T/C [7] was 23.8%, the viability, T/C [8] was 24.9% and the viability, T/C [9] was 32.9%. The viability, T/C [10] was 38.9%, the viability, T/C [11] was 3.26% and the viability, T/C [12] was 6.21%. The viability, T/C [13] was 15.9%, the viability, T/C [14] was 21.2% and the viability, T/C [15] was 23.5%. For the same compound, the viability, T/C [16] was 35.6%, the viability, T/C [17] was 2.54% and the viability, T/C [18] was 5.71%. It also gave a viability, T/C [19] of 14.5%, a viability, T/C [20] of 14.5% and a viability, T/C [21] of 20.1%. The viability, T/C [22] was 30.4%, the viability, T/C [23] was 2.68% and the viability, T/C [24] was 6.01%. The viability, T/C [25] was 8.49%, the viability, T/C [26] was 11.9% and the viability, T/C [27] was 15.1%. It also gave a viability, T/C [28] of 30.3%, a viability, T/C [29] of 3.16% and a viability, T/C [30] of 6.24%. It also gave a viability, T/C [31] of 8.25%, a viability, T/C [32] of 12.6% and a viability, T/C [33] of 14.8%. The viability, T/C [34] was 25.4%, the viability, T/C [35] was 2.42% and the viability, T/C [36] was 4.74%.
